Results on five compounds are retold here after patent US20240279520A1, “FLUORINE SUBSTITUTED ETHERS AND COMPOSITIONS, METHODS AND USES INCLUDING SAME” (Honeywell International Inc., priority 2022, published 2024).

Bounds are passed on as bounds.

Type in all cases: physicochemical
Data set [1] in a line: Density of fluoroethers. As to conditions: Table 2.
Data set [2] can be described thus: Experimental dielectric property measurements, Agilent 85070 Dielectric Probe. The settings on record: for Experimental Dk at 1 GHz / Experimental Loss Tangent at 1 GHZ: ambient pressure, approximately 23° C.; for Dielectric Constant (20 GHz): room temperature. The method, then: “Dielectric Constant” means the dielectric constant as measured at room temperature at 20 giga hertz (GHz).
Experimental dielectric property measurements were made on all liquids using the Agilent 85070 Dielectric Probe. All measurements were made at ambient pressure and room temperature (approximately 23° C.). Prior to making measurements, the system was calibrated from 1 GHz to 20 GHz with an open circuit, a short circuit, and DI water (@22.4° C.) standard. The result of the calibration is shown in the Table 5 below for DI H2O, and is consistent with DI water at 22.4° C. The accuracy of the probe is given as: Dielectric constant, er′=er′+/−0.05|er*| with er″=er″+/−0.05|er*| and (loss=er″/er′).

Data set [3] can be described thus: Boiling point of fluoroethers. The settings on record: for Boiling point: Table 2; for Bp: Table 5.

With `FC(F)OCC(F)(F)C(F)F` [Compound 1, 3-(difluoromethoxy)-1,1,2,2-tetrafluoropropane], in data set [1], the Density is 1.3-1.7. In data set [2], the “Experimental Dk at 1 GHz” value amounted to 2.94, the “Experimental Loss Tangent at 1 GHZ” value is listed as 0.036 and the “Dielectric Constant (20 GHz)” value was 4.0. Also, in data set [3], the Boiling point is 76 °C and the Bp stood at 76 °C.
`FC(F)OCC(F)(F)C(F)(F)F` [Compound 2, 3-(difluoromethoxy)-1,1,1,2,2-pentafluoropropane]: in data set [1], the Density is recorded as 1.3-1.7. Further, in data set [2], the “Experimental Dk at 1 GHz” value is on record as 5.21, the “Experimental Loss Tangent at 1 GHZ” value is on record as 0.038 and the “Dielectric Constant (20 GHz)” value came to 3.4. Besides, in data set [3], the Boiling point is 46 °C and the Bp was found to be 46 °C.
`FC(F)OC(C(F)(F)F)C(F)(F)F` [Compound 3, 2-(difluoromethoxy)-1,1,1,3,3,3-hexafluoropropane]: the Density in data set [1] was 1.3-1.7. Besides, the “Dielectric Constant (20 GHz)” value in data set [2] is under 5. In addition, in data set [3], the Boiling point was 41 °C and the Bp amounted to 41 °C.
As for `FC(F)OCC(F)(F)C(F)(F)C(F)(F)F` [Compound 4, 4-(difluoromethoxy)-1,1,1,2,2,3,3-heptafluorobutane], the Density in data set [1] was 1.3-1.7. In data set [2], the “Experimental Dk at 1 GHz” value is recorded as 4.51, the “Experimental Loss Tangent at 1 GHZ” value is 0.054 and the “Dielectric Constant (20 GHz)” value is on record as 2.8. In data set [3], this compound displayed a Boiling point of 69 °C and a Bp of 69 °C.
With `O` [DI Water, reference compound], in data set [2], the “Experimental Dk at 1 GHz” value was determined as 79.15 and the “Experimental Loss Tangent at 1 GHZ” value came out at 0.052. Moreover, the Bp in data set [3] was found to be 100 °C.
